The values that follow are results of earlier work, collected in patent US12590297B2, “Differentiation method” (Koninklijke Nederlandse Akademie Van Wetenschappen, priority 2016, dated 2026).

The target in one series is T1, glucocorticoid receptor (Homo sapiens, UniProt P04150).
T1 sequence (P04150 1-777): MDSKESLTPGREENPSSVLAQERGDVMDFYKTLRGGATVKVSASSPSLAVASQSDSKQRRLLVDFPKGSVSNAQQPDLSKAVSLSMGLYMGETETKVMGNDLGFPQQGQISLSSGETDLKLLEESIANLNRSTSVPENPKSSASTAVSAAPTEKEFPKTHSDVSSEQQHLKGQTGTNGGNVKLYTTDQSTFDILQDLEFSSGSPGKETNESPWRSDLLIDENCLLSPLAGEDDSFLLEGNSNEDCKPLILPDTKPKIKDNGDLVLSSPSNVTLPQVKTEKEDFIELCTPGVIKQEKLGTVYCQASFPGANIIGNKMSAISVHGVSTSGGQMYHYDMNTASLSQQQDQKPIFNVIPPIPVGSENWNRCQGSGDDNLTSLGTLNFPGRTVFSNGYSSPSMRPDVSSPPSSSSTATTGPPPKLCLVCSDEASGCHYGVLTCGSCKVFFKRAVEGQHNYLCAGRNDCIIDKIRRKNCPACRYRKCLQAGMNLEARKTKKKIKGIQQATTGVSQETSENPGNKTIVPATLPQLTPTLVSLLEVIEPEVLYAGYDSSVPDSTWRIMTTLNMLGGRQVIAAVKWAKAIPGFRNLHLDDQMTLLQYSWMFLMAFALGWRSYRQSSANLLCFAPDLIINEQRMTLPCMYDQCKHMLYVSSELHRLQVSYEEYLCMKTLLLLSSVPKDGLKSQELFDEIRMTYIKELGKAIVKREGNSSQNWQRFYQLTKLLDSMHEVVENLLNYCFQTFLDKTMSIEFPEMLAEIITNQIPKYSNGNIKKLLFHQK
As to conditions: in comparison to cortisol; oral dosing; cited from earlier work.

The target of another series is T2, ALK5 (TGF-βR1) (Homo sapiens, UniProt P36897).
T2 sequence (P36897 34-503): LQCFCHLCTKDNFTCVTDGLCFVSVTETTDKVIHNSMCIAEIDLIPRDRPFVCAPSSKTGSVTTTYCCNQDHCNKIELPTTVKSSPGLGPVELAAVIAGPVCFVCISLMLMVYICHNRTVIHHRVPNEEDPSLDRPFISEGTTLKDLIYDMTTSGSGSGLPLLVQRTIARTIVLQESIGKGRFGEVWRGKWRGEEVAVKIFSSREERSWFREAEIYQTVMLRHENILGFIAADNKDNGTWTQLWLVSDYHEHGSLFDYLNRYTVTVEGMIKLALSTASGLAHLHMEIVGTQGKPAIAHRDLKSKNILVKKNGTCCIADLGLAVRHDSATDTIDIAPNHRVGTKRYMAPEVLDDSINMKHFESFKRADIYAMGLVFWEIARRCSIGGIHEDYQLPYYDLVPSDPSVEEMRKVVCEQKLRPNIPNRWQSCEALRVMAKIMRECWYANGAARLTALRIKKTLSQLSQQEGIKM
To be noted: high concentrations; p38 MAP kinase inhibitor; cited from earlier work.

Some results are limits rather than exact numbers.

Turning to `C[C@]12CCC(=O)C=C1CC[C@@H]1[C@@H]2[C@@H](O)C[C@@]2(C)[C@H]1CC[C@]2(O)C(=O)CO` [Cortisol (hydrocortisone), Cortisol], the Glucocorticoid potency at glucocorticoid receptor is reported as 1. On to `C[C@]12CCC(=O)C=C1CC[C@@H]1[C@@H]2C(=O)C[C@@]2(C)[C@H]1CC[C@]2(O)C(=O)CO` [Cortisone], for which the Glucocorticoid potency at glucocorticoid receptor is 0.8. With `C[C@]12C=CC(=O)C=C1CC[C@@H]1[C@@H]2[C@@H](O)C[C@@]2(C)[C@H]1CC[C@]2(O)C(=O)CO` [Prednisolone], at glucocorticoid receptor, the Glucocorticoid potency is 4.

In the case of `C[S+]([O-])c1ccc(-c2nc(-c3ccc(F)cc3)c(-c3ccncc3)[nH]2)cc1` (centres unmarked) [SB-203580], the “concentration at which thought to inhibit ALK5” value at ALK5 (TGF-βR1) is at least 10 µM. With `C[C@]12C=CC(=O)C=C1CC[C@H]1[C@@H]3C[C@@H](O)[C@](O)(C(=O)CO)[C@@]3(C)C[C@H](O)[C@@]12F` [Triamcinolone], the Glucocorticoid potency on glucocorticoid receptor is recorded as 5.
